The test system of one series is erythrocytes. Conditions: 50 μg/mL, two hour incubation; cited from earlier work.
Series [1] deals with human lung airway epithelial cells (16HBE). The settings on record: 24-h incubation, non-linear curve fit. The method, then: (§1) Finally, toxicity of biaryl compounds was tested against human lung airway epithelial cells (16HBE), human dermal fibroblasts, and J774.A1 murine macrophages using an ALAMARBLUE® Cell Viability Assay. Biaryl compounds, C58, acetylated C58 (C58-2), C59, C59-2, C59Na, and C59Li were incubated with cells for 24 hours and an ALAMARBLUE® Cell Viability Assay was performed to determine cell viability relative to untreated controls (FIGS. 13A-13C). Cell viability curves were analyzed using non-linear curve fit to yield the inhibitory concentration at median cell survival (LD50) for all cell lines (Table 3).
(§2) Next, the toxicity of lead candidates was tested against human lung airway epithelial cells (16HBE) and human dermal fibroblasts (HDF) using an alamarBlue® Cell Viability Assay.

The test system of series [2] is human dermal fibroblasts (HDF). The settings on record: 24-h incubation, non-linear curve fit. The protocol:
as §1, §2

Series [3] concerns erythrocytes from sheep blood. As to the kind of experiment: Hemolytic activity. The settings on record: 1-h incubation. The method, then: Toxicity of biaryl compounds was tested against erythrocytes as well as eukaryotic epithelial, dermal, and macrophage cell lines in vitro.
Toxicity of lead antimicrobial candidates was tested against erythrocytes, as well as eukaryotic epithelial and dermal cell lines in vitro.

As to Gramicidin D [reference compound], the hemolysis in the series with erythrocytes is 60%. For the same substance, in series [1], the “16HBE LD50” value was 20.5 µg/mL. For the same substance, the “Fibroblasts LD50” value in series [2] amounted to 3.9 µg/mL. In series [3], the “concentration resulting in 100% hemolysis” value was determined as 48000 ng/mL and the onset of hemolysis was 2 µg/mL.
